Measurements from article PMC8305076, “Comprehensive Evaluation of Biological Effects of Pentathiepins on Various Human Cancer Cell Lines and Insights into Their Mode of Action” (International Journal of Molecular Sciences, 2021).

Assays:
Assay type in all cases: cell-based, human
YAPC = experiment: cell cycle analysis (PI staining); conditions: IC90, 24 and 48 h (Figure 19c)
Protocol: (§1) The potent cytotoxicity and the potential to inhibit the proliferation of cancer cells accompanied by DNA damage effects raised the question as to whether cell cycle progression might be affected as a result of treatment with pentathiepins.
(§2) Cells were harvested by trypsinization, collected in 1.5 mL tubes, and washed twice with PBS by centrifuging for 5 min at 500× g and discarding the supernatant after every step. For fixation, 500 µL of ice-cold ethanol (70%) was added dropwise under vortexing with a subsequent incubation on ice for 30 min. Then, the cells were centrifuged for 10 min at 4000 rpm and 4 °C, the supernatant was removed, and the cells were resuspended in 500 µL of PBS containing 25 µg/mL of PI and 100 µg/mL of RNase. The staining solution was incubated for 30 min, and the cell suspension was measured at λEx/Em = 488/655–730 nm using a MACSquant Analyzer 10 (Miltenyi Biotec, Teterow, Germany).

Siso [1] = experiment: alkaline Comet assay; conditions: 25 µM pentathiepin or 20 µM H2O2, 15 min, 0 °C
From the text: Next, the potential of the pentathiepins 1–6 to damage nuclear DNA was investigated in the cell lines HAP-1, HAP-1.KO.GPx1, and Siso, with different expression levels of GPx1 and CAT (see Figure 7), by Comet Assay (Figure 12) with representative images in the Supplementary Materials (Figure S48).
With this assay, the intensity of DNA damage can be assessed on the level of a single cell, in case of the alkaline version detecting both single and double strand breaks as well as alkali-labile sites. The method presented here is an adaptation of the protocol published by Olive and Banath and based on the distinct electrophoretic mobility of damaged and intact genomic DNA. The latter has a low mobility; does thus not migrate in the electric field; and remains in a nucleoid shape after lysis, referred to as the comet head. In contrast, when strand breaks are created, free charged ends emerge and increase the electrophoretic mobility, prompting DNA segments to drift away from the comet head, thereby forming the so-called comet tail. As descriptor of still intact genomic DNA, the percentage of DNA in the comet head was selected. Per condition, 50,000 cells of either Siso, HAP-1, or HAP-1.KO.GPx1 were diluted in 1 mL of PBS and subsequently treated with either a 1% DMF aqueous solution as negative control, 20 µM of H2O2 as positive control, or 25 µM of pentathiepin for 15 min on ice to impair intracellular DNA repair mechanisms. Afterwards, 400 µL of the cell suspension was blended with 1.2 mL of a 1% low melting point agarose solution (40 °C) and smoothly distributed on agarose-precoated glass slides. Polymerization was finished after 3 min at RT, and the slides were horizontally submerged in alkaline lysis buffer (1.2 M NaCl, 0.1% N-lauryl-sarcosinate, 0.1 M Na-EDTA, 0.26 M NaOH) before storing them at 4 °C overnight. The slides were then rinsed three times in rinse/electrophoresis buffer (0.002 M Na-EDTA, 0.03 M NaOH) before electrophoretic separation was performed for 25 min at 0.6 V/cm. A neutralization step by adding distilled water was followed by staining the slides with 250 µL of an aqueous 10 µg/mL PI solution for 20 min. For visualization and image capturing, a DMi8 fluorescent microscope and LASX software (Leica Microsystems, Wetzlar, Germany) were used, and the comets scored with the help of CometScore2.0 (rexhoover.com). Per condition and replicate, at least 100 comets were analyzed to calculate a mean level of damage.

PATU-8902 = experiment: cell cycle analysis (PI staining); conditions: IC90, 24 and 48 h (Figure 19b)
Protocol: as §1, §2

HAP-1.KO.GPx1 = experiment: annexin V-FITC/PI apoptosis assay; conditions: for early apoptotic cells: pentathiepins IC90, doxorubicin 0.5 µM, 24 h
Protocol: (§3) As reported in our earlier publication, a representative pentathiepin was capable of inducing apoptosis in cancer cell lines. Here, we tested compounds 1–6 for their ability to trigger this particular modality of cell death in a subset of four cell lines: HAP-1, HAP-1.KO.GPx1, A2780, and Siso. A flow cytometric assay was performed, allowing us to discriminate between viable, early, and late apoptotic cells (representative dot plots can be found in Figure S47). FITC-labeled annexin V was used to assess the externalization of phosphatidyl serine as a hallmark of early apoptosis induction. The addition of propidium iodide (PI) enabled the detection of late apoptotic cells as it only permeates porous cell membranes and exerts fluorescence once bound to double-stranded DNA.
(§4) The annexin V-FITC/PI assay, which discriminates between viable, early, and late apoptotic cells within a sample population, was performed according to the manufacturer’s instructions (Miltenyi Biotec, Teterow, Germany). Briefly, 125,000 cells were seeded in 2 mL per well of a 6-well plate, allowed to adhere overnight, and subsequently treated with the respective pentathiepin (IC90, see Table S4) diluted in 3 mL of medium. After incubation periods of 6, 24, or 48 h, the cells were harvested, washed with the provided binding buffer, and stained with the annexin V-FITC reagent for 20 min at room temperature (RT) in the dark. After another washing step, the pellet was resuspended, and PI was added immediately before flow cytometric measurement at λEx/Em = 488/525 ± 50 nm for FITC and λEx/Em = 488/655–730 nm for PI with the MACSquant Analyzer 10 (Miltenyi Biotec, Teterow, Germany).

HAP-1 = experiment: annexin V-FITC/PI apoptosis assay; conditions: IC90, 24 h
Protocol: as §3, §4

Siso [2] = experiment: annexin V-FITC/PI apoptosis assay; conditions: IC90, 24 h
Protocol: as §3, §4

A2780 = experiment: cell cycle analysis (PI staining); conditions: IC90, 48 h
Protocol: as §1, §2

Structure (SMILES): CCOc1c2c(c3cnc4[nH]c(-c5ccc(OC)cc5)cc4n13)SSSSS2 [Compound 1, 11-Ethoxy-2-(4-methoxyphenyl)-3H-[1,2,3,4,5]pentathiepino[6′,7′:3,4]pyrrolo[1,2-a]pyrrolo[2,3-e]pyrazine]
- increase of G0/G1-phase cells (YAPC): up to 18%

Structure (SMILES): CCOc1c2c(c3ccc(C(=O)N4CCCCC4)cn13)SSSSS2 [Compound 2, (6-Ethoxy-[1,2,3,4,5]pentathiepino[6,7-a]indolizin-9-yl)(piperidinyl)methanone]
- intact genomic DNA (Comet head) (Siso [1]): 30%

Structure (SMILES): CCOc1c2c(c3ccc(C(=O)N4CCOCC4)cn13)SSSSS2 [Compound 3, (6-Ethoxy-[1,2,3,4,5]pentathiepino[6,7-a]indolizin-9-yl)(morpholino)methanone]
- increase of S-phase cells (PATU-8902): up to 14%
- late apoptotic cells (HAP-1.KO.GPx1; IC90, 24 h): 6%
- early apoptotic cells (HAP-1.KO.GPx1): 34%
- late apoptotic cells (HAP-1): up to 12%
- early apoptotic cells (Siso [2]): about 20%
- late apoptotic cells (Siso [2]): about 20%

Structure (SMILES): CCOc1c2c(c3ccc(C(=O)N(CC)CC)cn13)SSSSS2 [Compound 4, 6-Ethoxy-N,N’-diethyl-[1,2,3,4,5]pentathiepino[6,7-a]indolizine-9-carboxamide]
- increase of S-phase cells (PATU-8902): up to 14%

Structure (SMILES): CCOc1c2c(c3ccc(C(=O)N4CCN(C(=O)c5ccc(F)cc5)CC4)cn13)SSSSS2 [Compound 5, (6-Ethoxy-[1,2,3,4,5]pentathiepino[6,7-a]indolizin-9-yl)(4-(4-fluorobenzoyl)piperazinyl)methanone]
- early apoptotic cells (HAP-1.KO.GPx1): 15%

Structure (SMILES): CCOc1c2c(c3ccc(C(=O)N4CCN(S(=O)(=O)c5ccc(C)cc5)CC4)cn13)SSSSS2 [Compound 6, (6-Ethoxy-[1,2,3,4,5]pentathiepino[6,7-a]indolizin-9-yl)(4-tosylpiperazinyl)methanone]
- increase of G0/G1-phase cells (YAPC): up to 18%
- relative amount of sub G1-phase cells (A2780): 30%
